The values that follow come from patent publication US9315522B2, “Antibacterial compounds” (JANSSEN SCIENCES IRELAND UC, priority 2012, dated 2016).

Converted amounts (≈) assume the structure as drawn.

The nature of series [1]: Thermodynamic solubility (pH solubility profiling). The class given is physicochemical. To be noted: thermodynamic from solid. The protocol: The pH solubility profiling was carried out at ambient temperature for a period of 4 days. A saturation solubility study was carried out in order to determine maximum solubility in a particular buffer solution. The compound was added to respective buffer solution until saturation point is reached. This was followed by shaking the flask for 4 days at ambient temperature. After 4 days, the solutions were filtered and injected on UPLC and the concentration was determined using a generic HPLC method.

Series [2] can be described thus: Cytotoxicity MTT assay (HELAM). The settings on record: human, HelaM cells, read-out: HELAM (222.125) CC50. The class given is cell-based, Human. Summed up:
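HelaM cells exposed 72 h at 37° C to serial dilutions, typically 25 to 0.8 μM, in 0.5% DMSO. MTT formazan dissolved in 2-propanol, absorbance at 540 nm minus 690 nm; CC50 is concentration halving viability.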
(Tetrazolium dyes change colour on reduction, which living cells bring about.)

The next series concerns S. aureus. The series is described as follows: Antibacterial susceptibility testing, IC90 determination with 10% human serum (STA + 10% HS). In kind it is cell-based, Staphylococcus aureus. To be noted: Staphylococcus aureus, human serum at final concentration of 10%, read-out: STA + 10% HS (361.169) IC90. Summed up: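 Broth microdilution in Mueller-Hinton broth with 10% human serum, 5×10^5 CFU/ml S. aureus, two-fold compound dilutions (typically 63 to 0.49 μM), 1.25% DMSO, 16-20 h at 35° C. Growth read fluorometrically with resazurin (ex 540/em 590 nm); IC90 in μg/ml is the 90% growth-inhibitory concentration.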

Series [3] has as its system S. aureus strain ATCC 29213. Put plainly: In vivo efficacy, peritonitis model of S. aureus infection. To be noted: female Swiss albino mice, IP infection, inoculum 8.9 log10, PO, QD, Sol 20% CD + 1HCl, 3 days post-infection. From the text:
The concept of studying the in vivo effect of an antibacterial compound by treating intraperitoneally infected mice was introduced in 1911 for optochin against pneumococci (Morgenroth and Levy, 1911). The popularity of the model comes from the ease of its use with short-duration experiments, reproducible infections and simple end-points.
Methicillin-sensitive S. aureus strain ATCC 29213 was used to infect female Swiss albino mice. A Brain Heart Infusion (BHI) broth bacterial culture was inoculated the day before infection, incubated at 37° C. overnight and diluted in fresh BHI broth to the desired concentration. Intraperitoneal (i.p.) injection of ˜5×10^9 colony forming units (CFU) was performed in either of the lateral lower quadrants of the abdomen. After inoculation, mice were kept in their cages under daily observation for development of signs of infection or death. For the treatment of mice, the p.o. route was used and each mouse was treated individually by gavage. Example of Cpd No. 48 was formulated as a 20% HP-β-cyclodextrin and example of Cpd No. 38 was formulated as a water/Tween-20 suspension. The parameter used for monitoring the course of infection and the effect of treatment was death or survival of the animals over 3 days post-infection. As death could also be due to toxic side effects, a non-infected control group of 3 mice, treated with the highest dose of the compound tested, was included.

Usually solubility (thermodynamic) stands for solubility found after equilibrating the solid with the medium. Broadly, the CC50 is the concentration that lowers cell viability or growth by half. Usually IC90 stands for the concentration at which the effect reaches the 90% level. Take `O=C1CNCc2cc(/C=C/C(=O)N3CC4C=C(c5nccs5)CC4C3)cnc2N1` (centres unmarked) [compound 48]: the solubility (thermodynamic) at 4 days in series [1] (aqueous buffer, Buffer pH 4, ambient temperature) was 440 µg/mL (≈ 1.08 mM); in series [1] (aqueous buffer, Buffer pH 7.4, ambient temperature), greater than 1220 µg/mL; in series [1] (aqueous with cosolvent or surfactant or cyclodextrin, 10% HP-β-CD buffer pH 4, ambient temperature), greater than 2470 µg/mL; in series [1] (aqueous with cosolvent or surfactant or cyclodextrin, 10% HP-β-CD buffer pH 7.4, ambient temperature) it was greater than 1380 µg/mL; in series [1] (aqueous with cosolvent or surfactant or cyclodextrin, 20% HP-β-CD buffer pH 4, ambient temperature), greater than 4720 µg/mL; in series [1] (aqueous with cosolvent or surfactant or cyclodextrin, 20% HP-β-CD buffer pH 7.4, ambient temperature), greater than 2410 µg/mL. In series [1] (pH 2, simulated gastric fluid, 0.01N HCl, ambient temperature), the solubility (thermodynamic) at 4 days is greater than 2560 µg/mL. Besides, the CC50 at 72 h in series [2] is greater than 10.2 µg/mL. Besides, the 90% effect concentration (IC90) in the series on S. aureus turned out to be 0.21 µg/mL. Besides, the “% Survival” value in series [3] (1 mpk) stood at 57%; in series [3] (5 mpk) it was 100%.
